Measurements: paper PMC3723252, “Trypanocidal Activity of Thioamide-Substituted Imidazoquinolinone: Electrochemical Properties and Biological Effects” (Evidence-based Complementary and Alternative Medicine : eCAM, 2013)
Read-outs that look alike come from different tables or passages of the source.

Tests used:
[1] = system: bloodstream trypomastigotes; assay: Trypanocidal effect on bloodstream trypomastigotes (24 h, mouse blood); format: cell-based; conditions: Trypanosoma cruzi, % lysed parasites
Protocol: (§1) Trypanosoma cruzi epimastigotes (Tulahuen strain) were grown as previously described. Bloodstream trypomastigotes were obtained from infected CF1 mice by cardiac puncture. Tulahuen strain expressing the β-galactosidase gene was kindly provided by Dr Buckner (University of Washington, USA).
The trypanocidal effects of C1, C2, C3, D and Bnz were also tested on bloodstream trypomastigotes according to a standard WHO protocol slightly modified. Briefly, mouse blood containing trypomastigotes was treated with different concentrations of each compound (0.30 to 350 μM) or Bnz (0.38 to 38 μM). Plates were incubated for 24 h, and surviving parasites were counted in a Neubauer chamber as previously described. Results were expressed as the percentage of lysed parasites (%L) relative to the number of parasites in the control: %L = [1 − (CDt/(CDc)] × 100, where CDt and CDc represent the cellular density of treated and untreated parasites, respectively.
(§2) The results presented are representative of three to four separate experiments, performed in duplicates or triplicates. All data are expressed as means ± standard errors of the mean (SEM). To calculate the IC50 values, the %I or %L values were plotted against the log of drug concentration (μM) and fitted with a straight line determined by a linear regression (Sigma Plot 10 software). The significance of differences was evaluated using Student' t test, taking a P < 0.05 as significant. Flow cytometry data were analyzed employing the WinMDI 2.9 software.

[2] = system: amastigotes (Tulahuen strain expressing the β-galactosidase gene) in J774 cells; assay: Amastigote assay in infected J774 cells (β-galactosidase, CPRG); format: cell-based; conditions: Trypanosoma cruzi, 168 h, 7 days
Protocol: as §1
For analysis of amastigotes, J774 cells were infected with bloodstream trypomastigotes expressing the β-galactosidase gene at a parasite: cell ratio of 10 : 1. After 24 h, cell cultures were washed and each compound (2 to 100 μM) was added in fresh RPMI medium without phenol red (to avoid interference with absorbance readings at 570 nm). After 7 days, the assay was developed as described. The galactosidase activity was quantified using CPRG as substrate and measuring absorbance at 570 nm in a Microplate Reader (Bio-Rad Laboratories). Since the assayed compounds are coloured, blanks including uninfected cells with different doses of each compound were performed. The percentage of inhibition was calculated as %I = {1 − [(A it − A nit)/(A ic − A nic)]} × 100, where A represents the mean A 570 value recorded for A it, treated infected cells; A nit, treated noninfected cells; A ic, untreated infected cells; and A nic, untreated noninfected cells.
as §2

[3] = system: Trypanosoma cruzi epimastigotes (Tulahuen strain); assay: Growth inhibition of epimastigotes (cell counting, 4 days); format: cell-based; conditions: 96 h, read-out: Epimastigotes IC50
Protocol: as §1
(§3) Cells growth was assessed by counting the number of cells per mL of culture using a Neubauer chamber and was expressed as cellular density (CD). The percentage of inhibition (%I) was calculated as %I = {1 − [(CD4t − CD0)/(CD4c − CD0)]} × 100, where the different CDs represent the cellular density of CD4t, treated parasites on day 4; CD0, parasites on day 0; and CD4c, untreated parasites (control) on day 4.
as §2

[4] = Cytotoxicity assay (MTT, 48 h); format: cell-based; conditions: African green monkey, Vero cells
Protocol: Vero cells were cultivated with different concentrations of each compound (12.5–100.0 μM) or Bnz (3.0–3000 μM). After 48 h of incubation, cells were washed and viability was measured by the MTT assay as previously described. The selectivity index (SI) was calculated as the 50% cytotoxic concentration (CC50) obtained with Vero cells divided by the 50% inhibitory concentration (IC50) obtained with T. cruzi.

[5] = system: Epimastigotes of T. cruzi; assay: Mitochondrial membrane potential (DiOC6 staining); format: cell-based, Trypanosoma cruzi; conditions: 22.5 μM, 31% for the control (0 h)
Protocol: (§4) Epimastigotes of T. cruzi from a 4 days culture were incubated with C1 (7.5–22.5 μM) during 5–36 hours. Cells were harvested, washed and then the following biochemical assays were carried out.
(§5) Mitochondrial membrane potential was assessed using two well-established assays: 3,3′-dihexyloxacarbocyanine iodide (DiOC6) staining and the cytochrome c release.
For the DiOC6 assay, epimastigotes (10^6) were permeabilized for 20 min at room temperature with 0.01% saponin, washed, and incubated with 30 nM DiOC6 for 30 min at 37°C. The positive control was done with 250 nM trifluoromethoxy carbonyl cyanide phenyl hydrazone (FCCP) as depolarizing agent. Stained cells were analyzed by flow cytometry with an excitation wavelength of 484 nm and an emission wavelength of 511 nm.

[6] = system: Epimastigotes of T. cruzi; assay: Parasite death by Annexin V-FITC/PI staining (flow cytometry); format: cell-based, Trypanosoma cruzi; conditions: for early apoptotic cells / late apoptotic cells: 22.5 μM; for early apoptotic cells: 0.8% at 0 h; for late apoptotic cells: 2.8% at 0 h; for viability at 22.5 µM: Trypanosoma cruzi, 95.9% for control (0 h), read-out: viable nonapoptotic cells
Protocol: as §4
Cell viability and phosphatidylserine (PS) exposure on the parasite surface were assessed by propidium iodide (PI) and Annexin V-fluorescein isothiocyanate (FITC) staining, according to the manufacturer's instructions (Invitrogen). Epimastigotes exposed to 30% fresh human serum for 2 h at 28°C were used as positive control. Parasites were analysed by flow cytometry acquiring 20,000 events per sample.

[7] = system: trypanothione reductase (TryR); assay: TryR activity in C1-treated epimastigotes; format: cell-based, Trypanosoma cruzi; conditions: control without C1 = 100%
Protocol: as §4
(§6) (b) Determination of Antioxidant Enzymes Activity. The activities of superoxide dismutase (SOD), ascorbate peroxidase (APx), and trypanothione reductase (TryR) were assayed as previously established.
(§7) Protein concentration was determined according to the method described by Lowry et al.. These values were used to express the specific enzymatic activities as activity per mg of protein.

[8] = system: superoxide dismutase (SOD); assay: SOD activity in C1-treated epimastigotes; format: cell-based, Trypanosoma cruzi; conditions: control without C1 = 100%
Protocol: as §4, §6, §7

[9] = system: Epimastigotes of T. cruzi; assay: Cytochrome c release (Western blot, densitometry); format: cell-based, Trypanosoma cruzi; conditions: 22.5 μM, at 36 h, relative to level detected after 24 h
Protocol: as §4, §5
To evaluate the cytochrome c release, parasites (3 × 10^8) were resuspended in PBS containing 200 μg/mL digitonin, incubated on ice for 15 min and then centrifuged at 9 000 ×g for 10 min at 4°C. Both, mitochondrial-rich fraction (pellet, resuspended in 50 μL of PBS) and cytosolic fraction (150 μL) were subjected to Western-blot analysis for cytochrome c. Protein extracts (10 μL and 30 μL of mitochondrial and cytosolic fractions, resp.) were resolved by 14% SDS/PAGE, transferred to nitrocellulose membranes, blocked with 3% skimmed milk in PBS, and then incubated with specific antibodies, according to the protocol of Piacenza et al.. Relative intensities of bands were quantified by densitometry using Scion Image software (Scion). Results were expressed in arbitrary units.

[10] = system: ascorbate peroxidase (APx); assay: APx activity in C1-treated epimastigotes; format: cell-based, Trypanosoma cruzi; conditions: control without C1 = 100%
Protocol: as §4, §6, §7

[11] = system: Epimastigotes of T. cruzi; assay: Determination of total thiol groups (DTNB); format: cell-based, Trypanosoma cruzi
Protocol: as §4
(c) Determination of Total Thiol Groups. The thiol groups content was determined employing the chromogenic compound 5,5′-dithiobis-2-nitrobenzoate (DTNB), as already described.

[12] = Cyclic voltammetry; format: physicochemical
Protocol: Cyclic voltammograms for C1, C2, and C3 dissolved in 1% DMSO were carried out using an EQMAT instrument with an EQSOFT Processor, at a sweep rate of 0.2 V/s under a nitrogen atmosphere at room temperature, employing lithium perchlorate as supporting electrolyte. A three-electrode cell was used equipped with a vitreous carbon as working electrode, a gold wire as auxiliary electrode, and a saturated calomel as reference electrode.

[13] = system: T. cruzi; assay: Effect of DTT, ascorbic acid and GSH on anti-T. cruzi activity of C1; format: cell-based, Trypanosoma cruzi
Protocol: as §3

[14] = system: Epimastigotes of T. cruzi; assay: Intracellular oxidative activity (H2DCFDA flow cytometry); format: cell-based, Trypanosoma cruzi; conditions: 7.5, 15 and 22.5 μM; 5, 12 and 24 h; data not shown
Protocol: as §4
(a) Assay of Intracellular Oxidative Activity. The intracellular oxidative activity was assessed by flow cytometry using the oxidant-sensitive fluorescent probe H2DCFDA. As a positive control cells were treated with 0.1 mM H2O2. Stained cells were then analyzed by a FACSCalibur flow cytometer (Becton Dickinson) with an excitation wavelength of 480 nm and an emission wavelength of 530 nm. Flow cytometry results were expressed by the ratio Gmt/Gmc, where Gmt and Gmc correspond to the geometric mean of histograms obtained for treated and untreated cells, respectively.

[15] = 1% DMSO, sweep rate 0.2 V/s, saturated calomel reference electrode

Compound: Cc1ccc(NC(=S)c2c3n(c(=O)c4ccccc24)CCN3)cc1 [Compound C3]
- IC50 [1]: 246 ± 18 µM
- IC50 [2]: 1.5 ± 0.32 µM
- IC50 [3]: 1.5 ± 0.3 µM

Compound: O=C(Cn1ccnc1[N+](=O)[O-])NCc1ccccc1 [Bnz, Benznidazole, reference compound]
- IC50 [1]: 30.3 ± 2.85 µM
- CC50 at 48 h [4]: 82.8 ± 2.75 µM
- IC50 [3]: 5.49 ± 0.89 µM

Compound: O=c1c2ccccc2c(C(=S)Nc2ccc(Cl)cc2)c2n1CCN2 [Compound C2, N-(4-chlorophenyl)-5-oxo-1,2,3,5-tetrahydroimidazo[1,2-b]isoquinolin-10-carbothioamide]
- IC50 [1]: 306 ± 15 µM
- IC50 [2]: 3.63 ± 0.51 µM
- IC50 [3]: 5.57 ± 0.53 µM

Compound: O=C(Nc1ccccc1)c1c2n(c(=O)c3ccccc13)CCN2 [D, 5-oxo-N-phenyl-1,2,3,5-tetrahydroimidazo[1,2-b]isoquinolin-10-carboxamide]
- IC50 [1]: > 300 µM
- IC50 [2]: 11.4 ± 1.21 µM
- IC50 [3]: > 25 µM

Compound: O=c1c2ccccc2c(C(=S)Nc2ccccc2)c2n1CCN2 [Compound C1, N-phenyl-5-oxo-1,2,3,5-tetrahydroimidazo[1,2-b]isoquinolin-10-carbothioamide]
- IC50 [1]: 34.9 ± 1.2 µM
- Depolarized cells ([5]; 24 h): 77%
- Depolarized cells ([5]; 36 h): 84%
- early apoptotic cells ([6]; 24 h): 8.7%
- late apoptotic cells ([6]; 24 h): 4.9%
- early apoptotic cells ([6]; 36 h): 51.0%
- late apoptotic cells ([6]; 36 h): 7.7%
- viability at 22.5 µM ([6]; 24 h): 84.8%
- viability at 22.5 µM ([6]; 36 h): 40.4%
- TryR activity (%) ([7]; 5 h, 7.5 µM): 152.23 ± 6.38 %
- TryR activity (%) ([7]; 5 h, 15.0 µM): 177.17 ± 15.56 %
- TryR activity (%) ([7]; 5 h, 22.5 µM): 143.89 ± 4.80 %
- TryR activity (%) ([7]; 12 h, 7.5 µM): 188.60 ± 12.30 %
- TryR activity (%) ([7]; 12 h, 15.0 µM): 251.62 ± 15.56 %
- TryR activity (%) ([7]; 12 h, 22.5 µM): 190.55 ± 14.29 %
- TryR activity (%) ([7]; 24 h, 7.5 µM): 165.23 ± 9.80 %
- TryR activity (%) ([7]; 24 h, 15.0 µM): 198.27 ± 9.30 %
- TryR activity (%) ([7]; 24 h, 22.5 µM): 163.56 ± 7.60 %
- SOD activity (%) ([8]; 5 h, 7.5 µM): 95.85 ± 2.50%
- SOD activity (%) ([8]; 5 h, 15.0 µM): 99.31 ± 4.30%
- SOD activity (%) ([8]; 5 h, 22.5 µM): 90.09 ± 2.30%
- SOD activity (%) ([8]; 12 h, 7.5 µM): 99.75 ± 2.90%
- SOD activity (%) ([8]; 12 h, 15.0 µM): 103.92 ± 4.30%
- SOD activity (%) ([8]; 12 h, 22.5 µM): 88.48 ± 3.20 %
- SOD activity (%) ([8]; 24 h, 7.5 µM): 98.74 ± 7.30%
- SOD activity (%) ([8]; 24 h, 15.0 µM): 89.78 ± 3.50 %
- SOD activity (%) ([8]; 24 h, 22.5 µM): 78.27 ± 4.20 %
- increase of cytochrome c in the parasite cytosol [9]: 2.5–3 times
- APx activity (%) ([10]; 5 h, 7.5 µM): 111.26 ± 7.60%
- APx activity (%) ([10]; 5 h, 15.0 µM): 98.31 ± 2.10%
- APx activity (%) ([10]; 5 h, 22.5 µM): 105.20 ± 6.20%
- APx activity (%) ([10]; 12 h, 7.5 µM): 98.30 ± 2.30%
- APx activity (%) ([10]; 12 h, 15.0 µM): 95.91 ± 4.10%
- APx activity (%) ([10]; 12 h, 22.5 µM): 93.48 ± 6.20%
- APx activity (%) ([10]; 24 h, 7.5 µM): 108.35 ± 9.20%
- APx activity (%) ([10]; 24 h, 15.0 µM): 105.30 ± 6.56%
- APx activity (%) ([10]; 24 h, 22.5 µM): 96.25 ± 5.80%
- decrease of low molecular mass thiols ([11]; 22.5 μM, 24 h of incubation): not more than 20%
- level of low molecular mass thiols ([11]; all C1 concentrations tested, 5 and 12 h, data not shown): remain constant
- IC50 [2]: 1.74 ± 0.3 µM
- anodic peak (irreversible oxidation) [12, 15]: 0.78 V
- cathodic peak (irreversible reduction) [12, 15]: −1.04 V
- IC50 [3]: 1.49 ± 0.28 µM
- effect of DTT and ascorbic acid on the inhibitory action of the drug ([13]; C1 1 up to 2.5 μM, at the antioxidant concentrations tested): considerably enhanced
- effect of GSH on the inhibitory effect of C1 ([13]; GSH 5 μM): completely abrogated
- ratio Gmt/Gmc (H2DCFDA fluorescence) [14]: around 1

Compound: O=c1c2ccccc2cc2n1CCN2 [heterocycle precursor, 2,3-dihydroimidazo[1,2-b]isoquinolin-5(1-H)-one]
- cathodic and anodic peaks ([12]; subjected to the same potentials as C1): Neither the cathodic nor the anodic peaks were measurable
- IC50 [3]: > 25 µM
